US20140005163A1 (NOVARTIS AG, priority 2010, published 2014)
pIC50: −log10 of the molar value.

What was measured:
mTOR = target: T1, mTOR (Homo sapiens, UniProt P42345); assay: Biochemical assay for m-TOR by TR-FRET; settings: 8 μM ATP, 400 nM GFP-4EBP1, 0.5 nM mTOR
T1 construct: purchased Invitrogen Corporation (Carlsbad/CA, USA) PV4753
Procedure, shortened: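 TR-FRET detection of pThr46 on GFP-4EBP1 (400 nM final) using Tb3+-labelled antibody (0.5 nM), added with EDTA to stop reactions. Reactions ran at rt with 0.5 nM mTOR and 8 μM ATP (final) in HEPES pH 7.5 buffer containing 10 mM MnCl2.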

[1] = tested on: PKB Ser473 phosphorylation in Rat1-myr-HA-p110 delta cells; assay: Reverse protein array assay, PKB Ser473 phosphorylation in Rat1-myr-p110 delta cells; format: cell-based; settings: read-out: p-PKB IC50
Procedure, shortened: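 Rat1 cells expressing myristoylated HA-tagged p110 alpha, beta or delta were plated for at least 20 h, then exposed to 8-step serial compound dilutions (0.2% DMSO final) for 30 min at 37 °C. Lysates were spotted at four dilutions on protein microarrays, and relative fluorescence intensity of phospho-Ser473 PKB was calculated.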

[2] = tested on: S6 Ribosomal Protein phosphorylation Ser235/236 in TSC1 null mouse embryo fibroblast (MEF) cells; assay: Reverse protein array assay, S6 Ribosomal Protein phosphorylation Ser235/236 in TSC1 null MEF cells; format: cell-based; settings: 1 h, pS6 ribosomal protein Ser235/236, 60 minutes incubation, read-out: p-S6 IC50
Procedure, shortened: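 TSC1−/− MEFs, seeded and held ≥20 h at 37 °C/5% CO2, were exposed to 8-step serial compound dilutions (0.02% DMSO final; DMSO vehicle control) for 60 min at 37 °C. Cells were then lysed on ice for 10 min and lysates spotted onto reverse protein array chips.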

T1 sequence (P42345 1360-2549 limits assumed): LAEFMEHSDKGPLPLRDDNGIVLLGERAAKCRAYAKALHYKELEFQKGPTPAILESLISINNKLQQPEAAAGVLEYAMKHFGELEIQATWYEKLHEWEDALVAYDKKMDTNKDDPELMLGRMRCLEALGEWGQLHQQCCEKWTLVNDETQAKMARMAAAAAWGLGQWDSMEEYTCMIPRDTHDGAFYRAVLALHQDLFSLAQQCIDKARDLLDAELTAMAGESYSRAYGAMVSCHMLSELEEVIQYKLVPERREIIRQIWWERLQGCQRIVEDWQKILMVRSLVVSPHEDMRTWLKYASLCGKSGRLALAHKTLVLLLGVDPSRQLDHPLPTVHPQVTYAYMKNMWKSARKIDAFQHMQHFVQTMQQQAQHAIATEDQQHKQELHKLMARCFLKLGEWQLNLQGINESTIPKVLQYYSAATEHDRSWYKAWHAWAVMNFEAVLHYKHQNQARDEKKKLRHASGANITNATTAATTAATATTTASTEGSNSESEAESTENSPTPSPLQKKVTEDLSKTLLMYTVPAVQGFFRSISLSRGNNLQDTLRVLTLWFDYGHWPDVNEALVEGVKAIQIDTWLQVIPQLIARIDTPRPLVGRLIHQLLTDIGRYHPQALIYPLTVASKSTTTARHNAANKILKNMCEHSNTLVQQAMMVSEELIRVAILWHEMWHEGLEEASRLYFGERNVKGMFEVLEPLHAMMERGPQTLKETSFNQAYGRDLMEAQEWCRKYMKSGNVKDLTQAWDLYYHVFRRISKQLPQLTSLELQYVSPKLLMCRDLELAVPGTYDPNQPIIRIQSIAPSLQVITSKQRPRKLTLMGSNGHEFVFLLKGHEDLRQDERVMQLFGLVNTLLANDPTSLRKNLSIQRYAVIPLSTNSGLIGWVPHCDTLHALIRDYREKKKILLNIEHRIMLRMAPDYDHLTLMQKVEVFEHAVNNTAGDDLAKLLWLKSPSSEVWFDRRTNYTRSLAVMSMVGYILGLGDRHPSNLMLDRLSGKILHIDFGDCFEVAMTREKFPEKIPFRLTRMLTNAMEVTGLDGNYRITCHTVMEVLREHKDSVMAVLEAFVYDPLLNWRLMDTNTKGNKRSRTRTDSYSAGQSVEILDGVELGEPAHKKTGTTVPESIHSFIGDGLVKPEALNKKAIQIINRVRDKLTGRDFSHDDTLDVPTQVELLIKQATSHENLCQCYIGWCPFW

Row | SMILES | pIC50 (mTOR) | pIC50 [1] | pIC50 [2]
1 | CNc1cc(-c2ccc3ncc4c(c3c2)n(-c2cn(C)nc2Cl)c(=O)n4C)cnc1CO [Example 158.3, 1-(3-Chloro-1-methyl-1H-pyrazol-4-yl)-8-(6-hydroxymethyl-5-methylamino-pyridin-3-yl)-3-methyl-1,3-dihydro-imidazo[4,5-c]quinolin-2-one] | 7.92 | > 8.30 | > 9.30
2 | CNc1cc(-c2ccc3ncc4c(c3c2)n(-c2cn(C)nc2C)c(=O)n4C)cnc1C [Example 163, 1-(1,3-Dimethyl-1H-pyrazol-4-yl)-3-methyl-8-(6-methyl-5-methylamino-pyridin-3-yl)-1,3-dihydro-imidazo[4,5-c]quinolin-2-one] | > 8.52 | 7.92 | 8.70
3 | CCN(C)c1cc(-c2ccc3ncc4c(c3c2)n(-c2cn(C)nc2C)c(=O)n4C)cnc1C [Example 165, 1-(1,3-Dimethyl-1H-pyrazol-4-yl)-8-[5-(ethyl-methyl-amino)-6-methyl-pyridin-3-yl]-3-methyl-1,3-dihydro-imidazo[4,5-c]quinolin-2-one] | > 8.52 | 8.10 | 9.00
4 | Cc1nn(C(C)C)cc1-n1c(=O)n(C)c2cnc3ccc(-c4cnc(N)c(CO)c4)cc3c21 [Example 169.1, 8-(6-Amino-5-hydroxymethyl-pyridin-3-yl)-1-(1-isopropyl-3-methyl-1H-pyrazol-4-yl)-3-methyl-1,3-dihydro-imidazo[4,5-c]quinolin-2-one] | > 8.52 | 7.15 | 8.25
5 | Cc1nn(C)cc1-n1c(=O)n(C)c2cnc3ccc(-c4cncc(NC5CCC5)c4)cc3c21 [Example 172, 8-(5-Cyclobutylamino-pyridin-3-yl)-1-(1,3-dimethyl-1H-pyrazol-4-yl)-3-methyl-1,3-dihydro-imidazo[4,5-c]quinolin-2-one] | > 8.52 | 7.82 | 9.00
6 | Cc1nn(C)cc1-n1c(=O)n(C)c2cnc3ccc(-c4cncc(N(C)C(C)C)c4)cc3c21 [Example 173, 1-(1,3-Dimethyl-1H-pyrazol-4-yl)-8-[5-(isopropyl-methyl-amino)-pyridin-3-yl]-3-methyl-1,3-dihydro-imidazo[4,5-c]quinolin-2-one] | 8.40 | 7.30 | 8.70
7 | Cc1nn(C)cc1-n1c(=O)n(C)c2cnc3ccc(-c4cncc(N5CCOCC5)c4)cc3c21 [Example 175.1, 1-(1,3-Dimethyl-1H-pyrazol-4-yl)-3-methyl-8-(5-morpholin-4-yl-pyridin-3-yl)-1,3-dihydro-imidazo[4,5-c]quinolin-2-one] | 8.22 | 7.05 | 9.00
8 | Cc1nn(C)cc1-n1c(=O)n(C)c2cnc3ccc(-c4cncc(N(C)C)c4)cc3c21 [Example 178, 8-(5-Dimethylamino-pyridin-3-yl)-1-(1,3-dimethyl-1H-pyrazol-4-yl)-3-methyl-1,3-dihydro-imidazo[4,5-c]quinolin-2-one] | 7.82 | 7.07 | 8.70
9 | Cc1nn(C)cc1-n1c(=O)n(C)c2cnc3ccc(-c4cncc(N5CCC5)c4)cc3c21 [Example 179, 8-(5-Azetidin-1-yl-pyridin-3-yl)-1-(1,3-dimethyl-1H-pyrazol-4-yl)-3-methyl-1,3-dihydro-imidazo[4,5-c]quinolin-2-one] | 7.89 | 7.60 | 8.00
10 | CNc1cncc(-c2ccc3ncc4c(c3c2)n(-c2cn(C(C)C)nc2C)c(=O)n4C)c1 [Example 180.2, 1-(1-Isopropyl-3-methyl-1H-pyrazol-4-yl)-3-methyl-8-(5-methylamino-pyridin-3-yl)-1,3-dihydro-imidazo[4,5-c]quinolin-2-one] | > 8.52 | 7.62 | 7.77
11 | CCOc1cc(-c2ccc3ncc4c(c3c2)n(-c2cn(C)nc2C)c(=O)n4C)cnc1CC [Example 187, 1-(1,3-Dimethyl-1H-pyrazol-4-yl)-8-(5-ethoxy-6-ethyl-pyridin-3-yl)-3-methyl-1,3-dihydro-imidazo[4,5-c]quinolin-2-one] | 8.10 | 7.62 | 8.72
12 | CCc1ncc(-c2ccc3ncc4c(c3c2)n(-c2cn(C)nc2C)c(=O)n4C)cc1O [Example 188, 1-(1,3-Dimethyl-1H-pyrazol-4-yl)-8-(6-ethyl-5-hydroxy-pyridin-3-yl)-3-methyl-1,3-dihydro-imidazo[4,5-c]quinolin-2-one] | > 8.52 | 7.39 | 8.09
13 | CCn1cc(-n2c(=O)n(C)c3cnc4ccc(-c5cnc(COC)c(OC(C)C)c5)cc4c32)c(C)n1 [Example 191.2, 1-(1-Ethyl-3-methyl-1H-pyrazol-4-yl)-8-(5-isopropoxy-6-methoxymethyl-pyridin-3-yl)-3-methyl-1,3-dihydro-imidazo[4,5-c]quinolin-2-one] | 7.47 | 7.06 | 8.30
14 | Cc1nn(C)cc1-n1c(=O)n(C)c2cnc3ccc(-c4cnc(CO)c(OC(CF)CF)c4)cc3c21 [Example 192, 1-(1,3-Dimethyl-1H-pyrazol-4-yl)-8-[5-(2-fluoro-1-fluoromethyl-ethoxy)-6-hydroxymethyl-pyridin-3-yl]-3-methyl-1,3-dihydro-imidazo[4,5-c]quinolin-2-one] | 8.22 | 7.14 | 8.30
15 | CCOCc1ncc(-c2ccc3ncc4c(c3c2)n(-c2cn(C)nc2C)c(=O)n4C)cc1OC [Example 196.2, 1-(1,3-Dimethyl-1H-pyrazol-4-yl)-8-(6-ethoxymethyl-5-methoxy-pyridin-3-yl)-3-methyl-1,3-dihydro-imidazo[4,5-c]quinolin-2-one] | 6.71 | 6.47 | 6.90
16 | CCOc1cc(-c2ccc3ncc4c(c3c2)n(-c2cn(C(C)C)nc2C)c(=O)n4C)cnc1COC [Example 197.2, 8-(5-Ethoxy-6-methoxymethyl-pyridin-3-yl)-1-(1-isopropyl-3-methyl-1H-pyrazol-4-yl)-3-methyl-1,3-dihydro-imidazo[4,5-c]quinolin-2-one] | 6.97 | 6.47 | 8.15
17 | COCc1ccc(-c2ccc3ncc4c(c3c2)n(-c2cn(C)nc2Cl)c(=O)n4C)cn1 [Example 203, 1-(3-Chloro-1-methyl-1H-pyrazol-4-yl)-8-(6-methoxymethyl-pyridin-3-yl)-3-methyl-1,3-dihydro-imidazo[4,5-c]quinolin-2-one] | 7.82 | 7.59 | 7.66
18 | CCNc1ncc(-c2ccc3ncc4c(c3c2)n(-c2cn(C)nc2C)c(=O)n4C)cc1COC [Example 206.1, 1-(1,3-Dimethyl-1H-pyrazol-4-yl)-8-(6-ethylamino-5-methoxymethyl-pyridin-3-yl)-3-methyl-1,3-dihydro-imidazo[4,5-c]quinolin-2-one] | 7.47 | 7.35 | 8.52
19 | CCc1ncc(-c2ccc3ncc4c(c3c2)n(-c2cn(C)nc2C)c(=O)n4C)cc1N [Example 208, 8-(5-Amino-6-ethyl-pyridin-3-yl)-1-(1,3-dimethyl-1H-pyrazol-4-yl)-3-methyl-1,3-dihydro-imidazo[4,5-c]quinolin-2-one] | 8.15 | 7.08 | 8.30
20 | CO[C@@H]1CCN(c2ccc(-c3ccc4ncc5c(c4c3)n(-c3cn(C)nc3C)c(=O)n5C)cn2)C1 [Example 213.1, 1-(1,3-Dimethyl-1H-pyrazol-4-yl)-8-[6-((R)-3-methoxy-pyrrolidin-1-yl)-pyridin-3-yl]-3-methyl-1,3-dihydro-imidazo[4,5-c]quinolin-2-one] | 6.43 | 6.20 | 7.31
21 | Cn1cc(-n2c(=O)n(C)c3cnc4ccc(-c5cncc(C(C)(C)C#N)c5)cc4c32)c(Cl)n1 [Example 220.3, 2-{5-[1-(3-Chloro-1-methyl-1H-pyrazol-4-yl)-3-methyl-2-oxo-2,3-dihydro-1H-imidazo[4,5-c]quinolin-8-yl]-pyridin-3-yl}-2-methyl-propionitrile] | 8.30 | 7.89 | > 9.30
22 | Cc1nn(C)cc1-n1c(=O)n(C)c2cnc3ccc(-c4cncc(C5(C#N)CCC5)c4)cc3c21 [Example 221.1, 1-{5-[1-(1,3-Dimethyl-1H-pyrazol-4-yl)-3-methyl-2-oxo-2,3-dihydro-1H-imidazo[4,5-c]quinolin-8-yl]-pyridin-3-yl}-cyclobutanecarbonitrile] | 7.49 | 7.39 | 9.00
23 | CCN1C(=O)OCc2ncc(-c3ccc4ncc5c(c4c3)n(-c3cn(C)nc3C)c(=O)n5C)cc21 [Example 237, 1-(1,3-Dimethyl-1H-pyrazol-4-yl)-8-(1-ethyl-2-oxo-1,4-dihydro-2H-pyrido[3,2-d][1,3]oxazin-7-yl)-3-methyl-1,3-dihydro-imidazo[4,5-c]quinolin-2-one] | 7.15 | 7.31 | 8.22
24 | CCn1c(=O)n(-c2cn(C)nc2C)c2c3cc(-c4cncc(N)c4)ccc3ncc21 [Example 245, 8-(5-Amino-pyridin-3-yl)-1-(1,3-dimethyl-1H-pyrazol-4-yl)-3-ethyl-1,3-dihydro-imidazo[4,5-c]quinolin-2-one] | 7.12 | 6.14 | 7.37
